From patent publication US6887827B2, “Combinations of herbicidal aromatic carboxylic acids and safeners” (Bayer CropScience GmbH, priority 2002, dated 2005)

Tested on: Triticum aestivum (wheat)
Test: Post-emergence crop plant selectivity field trial: visually scored damage to wheat
Type: in vivo
Conditions: wheat at 3-tiller growth stage, 39 days after treatment, average of three trials
Method: 1. Post-Emergence Effect on Weeds and Crop Plant Selectivity (Field Trials) Crop plants were grown outdoors on plots under natural outdoor conditions, and seeds or rhizome pieces of typical harmful plants were laid out or the natural weed growth was utilized. Treatment with the compositions according to the invention was carried out after the harmful plants had emerged and the crop plants were at the growth stage stated below. After the application, the effect of the composition was scored visually by comparison with untreated controls.

Row | Compound | Phytotox (%) on TRZAS (140 g ai/ha) [%] | Phytotox (%) on TRZAS (210 g ai/ha) [%] | Phytotox (%) on TRZAS (280 g ai/ha) [%] | Phytotox (%) on TRZAS (50 g ai/ha) [%] | Phytotox (%) on TRZAS (120 g ai/ha) [%]
1 | COc1c(Cl)ccc(Cl)c1C(=O)O [(A1), 3,6-dichloro-2-methoxybenzoic acid] | 27 | 25 | 27 |  | 
2 | CCOC(=O)C1=NN(c2ccc(Cl)cc2Cl)C(C)(C(=O)OCC)C1 (centres unmarked) [(B1.1.1), ethyl 1-(2,4-dichlorophenyl)-5-(ethoxycarbonyl)-5-methyl-2-pyrazoline-3-carboxylate] |  |  |  | 0 | 0
